# In ChEMBL document CHEMBL5442175, “EUbOPEN Chemogenomics Library - PDSP Secondary Binding” (2024):
# Structures can show the parent of a compound that is named as a salt.
# Assays:
# [1] = molecular target: 5-hydroxytryptamine receptor 1D (Homo sapiens, UniProt P28221); assay: (§1) PDSP Secondary Binding target: HTR1D - Compounds are tested at 10 uM concentration, plate are incubated at room temperature in the dark for 90 minutes. Reaction are stopped by vacuum filtration onto 0.3% polyethyleneimine soaked filter mats using Filtermate harvester. Scintillation cocktail is then melted onto microwave-dried filters on a hot plate and the radio activity is counted in Microbia counter.
# [2] = molecular target: 5-hydroxytryptamine receptor 7 (Homo sapiens, UniProt P34969); assay: as §1, with “HTR7” for “HTR1D”
# [3] = molecular target: Sigma non-opioid intracellular receptor 1 (Homo sapiens, UniProt Q99720); assay: as §1, with “SIGMAR1” for “HTR1D”
# [4] = molecular target: Translocator protein (Homo sapiens, UniProt P30536); assay: as §1, with “TSPO” for “HTR1D”
# [5] = molecular target: D(3) dopamine receptor (Homo sapiens, UniProt P35462); assay: as §1, with “DRD3” for “HTR1D”
# [6] = molecular target: Sigma intracellular receptor 2 (Homo sapiens, UniProt Q5BJF2); assay: as §1, with “TMEM97” for “HTR1D”
# [7] = molecular target: Sodium-dependent dopamine transporter (Homo sapiens, UniProt Q01959); assay: as §1, with “SLC6A3” for “HTR1D”
# [8] = molecular target: 5-hydroxytryptamine receptor 2A (Homo sapiens, UniProt P28223); assay: as §1, with “HTR2A” for “HTR1D”
# [9] = molecular target: Sodium-dependent noradrenaline transporter (Homo sapiens, UniProt P23975); assay: as §1, with “SLC6A2” for “HTR1D”
# [10] = molecular target: T1, Muscarinic acetylcholine receptor M5 (Homo sapiens, UniProt P08912); assay: as §1, with “CHRM5” for “HTR1D”
# T1 sequence (P08912 whole entry): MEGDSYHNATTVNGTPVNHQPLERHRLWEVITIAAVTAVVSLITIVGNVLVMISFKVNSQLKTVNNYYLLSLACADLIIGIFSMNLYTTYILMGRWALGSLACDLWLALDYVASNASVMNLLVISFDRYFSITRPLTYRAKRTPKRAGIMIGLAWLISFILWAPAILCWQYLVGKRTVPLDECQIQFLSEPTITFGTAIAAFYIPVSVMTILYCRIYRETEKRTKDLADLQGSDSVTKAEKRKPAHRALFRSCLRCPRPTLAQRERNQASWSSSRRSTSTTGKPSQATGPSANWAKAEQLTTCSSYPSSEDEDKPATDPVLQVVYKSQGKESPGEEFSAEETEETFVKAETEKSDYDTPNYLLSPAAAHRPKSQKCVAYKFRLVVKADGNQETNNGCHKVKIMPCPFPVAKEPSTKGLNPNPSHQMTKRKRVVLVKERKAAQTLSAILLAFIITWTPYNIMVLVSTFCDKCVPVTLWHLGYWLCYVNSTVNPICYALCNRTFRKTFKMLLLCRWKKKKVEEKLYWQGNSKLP
# [11] = molecular target: T2, Alpha-2A adrenergic receptor (Homo sapiens, UniProt P08913); assay: as §1, with “ADRA2A” for “HTR1D”
# T2 sequence (P08913 whole entry): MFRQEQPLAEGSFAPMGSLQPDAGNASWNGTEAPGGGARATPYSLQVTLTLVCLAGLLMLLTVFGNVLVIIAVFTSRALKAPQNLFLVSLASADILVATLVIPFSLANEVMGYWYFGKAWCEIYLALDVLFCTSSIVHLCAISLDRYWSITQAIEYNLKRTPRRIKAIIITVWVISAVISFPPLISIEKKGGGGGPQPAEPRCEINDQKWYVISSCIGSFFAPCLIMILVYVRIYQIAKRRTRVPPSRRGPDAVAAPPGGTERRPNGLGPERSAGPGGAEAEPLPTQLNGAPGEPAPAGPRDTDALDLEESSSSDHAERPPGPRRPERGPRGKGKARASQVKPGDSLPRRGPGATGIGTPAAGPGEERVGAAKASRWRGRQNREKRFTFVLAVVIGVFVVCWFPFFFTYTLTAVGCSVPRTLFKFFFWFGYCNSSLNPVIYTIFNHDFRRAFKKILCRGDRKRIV
# [12] = molecular target: T3, Alpha-1B adrenergic receptor (Homo sapiens, UniProt P35368); assay: as §1, with “ADRA1B” for “HTR1D”
# T3 sequence (P35368 whole entry): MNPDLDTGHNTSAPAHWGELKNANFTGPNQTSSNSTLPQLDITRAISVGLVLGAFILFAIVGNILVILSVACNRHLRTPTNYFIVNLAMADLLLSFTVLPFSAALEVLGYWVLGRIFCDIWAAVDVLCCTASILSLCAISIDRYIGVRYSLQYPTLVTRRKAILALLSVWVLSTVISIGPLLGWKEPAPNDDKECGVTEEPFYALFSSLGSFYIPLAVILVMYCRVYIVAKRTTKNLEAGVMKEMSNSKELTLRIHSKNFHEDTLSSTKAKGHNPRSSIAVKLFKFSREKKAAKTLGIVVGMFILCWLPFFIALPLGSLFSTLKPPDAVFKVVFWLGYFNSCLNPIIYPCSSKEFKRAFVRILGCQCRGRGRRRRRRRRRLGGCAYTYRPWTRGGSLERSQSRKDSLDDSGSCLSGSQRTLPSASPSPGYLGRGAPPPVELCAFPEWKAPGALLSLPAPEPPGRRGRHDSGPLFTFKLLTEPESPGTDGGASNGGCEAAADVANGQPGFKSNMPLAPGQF
# Sigma non-opioid intracellular receptor 1, sequence (Q99720 whole entry): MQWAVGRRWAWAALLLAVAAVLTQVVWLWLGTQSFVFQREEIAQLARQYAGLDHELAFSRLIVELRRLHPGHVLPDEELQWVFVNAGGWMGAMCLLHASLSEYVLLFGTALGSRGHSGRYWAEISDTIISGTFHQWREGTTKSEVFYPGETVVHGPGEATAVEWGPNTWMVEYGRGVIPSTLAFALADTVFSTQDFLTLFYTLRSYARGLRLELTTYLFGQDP
# 5-hydroxytryptamine receptor 2A, sequence (P28223 whole entry): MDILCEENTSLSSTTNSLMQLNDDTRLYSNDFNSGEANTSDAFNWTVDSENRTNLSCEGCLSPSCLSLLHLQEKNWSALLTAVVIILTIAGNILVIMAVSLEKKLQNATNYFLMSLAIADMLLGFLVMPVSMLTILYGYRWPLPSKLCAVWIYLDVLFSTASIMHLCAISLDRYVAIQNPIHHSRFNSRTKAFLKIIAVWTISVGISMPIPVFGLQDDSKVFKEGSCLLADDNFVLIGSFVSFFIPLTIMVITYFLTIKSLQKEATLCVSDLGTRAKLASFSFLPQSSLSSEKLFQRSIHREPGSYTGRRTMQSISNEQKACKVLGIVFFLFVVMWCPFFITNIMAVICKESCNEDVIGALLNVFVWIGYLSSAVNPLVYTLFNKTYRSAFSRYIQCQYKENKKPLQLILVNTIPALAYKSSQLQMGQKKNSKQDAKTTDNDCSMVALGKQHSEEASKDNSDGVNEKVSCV
# D(3) dopamine receptor, sequence (P35462 whole entry): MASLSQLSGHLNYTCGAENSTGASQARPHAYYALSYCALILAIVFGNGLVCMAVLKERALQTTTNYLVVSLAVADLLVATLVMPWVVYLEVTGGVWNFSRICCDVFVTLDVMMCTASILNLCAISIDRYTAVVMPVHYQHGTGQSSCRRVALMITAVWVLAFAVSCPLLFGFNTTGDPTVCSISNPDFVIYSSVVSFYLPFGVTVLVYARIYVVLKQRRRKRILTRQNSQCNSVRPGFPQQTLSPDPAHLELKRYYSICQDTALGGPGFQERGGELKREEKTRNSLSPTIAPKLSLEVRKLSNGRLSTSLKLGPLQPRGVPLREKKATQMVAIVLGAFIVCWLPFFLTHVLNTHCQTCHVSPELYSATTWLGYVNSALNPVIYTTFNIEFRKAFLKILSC
# Translocator protein, sequence (P30536 whole entry): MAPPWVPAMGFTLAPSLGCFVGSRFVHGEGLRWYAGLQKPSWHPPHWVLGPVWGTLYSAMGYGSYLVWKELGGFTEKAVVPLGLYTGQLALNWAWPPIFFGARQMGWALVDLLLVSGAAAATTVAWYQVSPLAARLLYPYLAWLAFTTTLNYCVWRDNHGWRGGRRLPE
# Sodium-dependent dopamine transporter, sequence (Q01959 whole entry): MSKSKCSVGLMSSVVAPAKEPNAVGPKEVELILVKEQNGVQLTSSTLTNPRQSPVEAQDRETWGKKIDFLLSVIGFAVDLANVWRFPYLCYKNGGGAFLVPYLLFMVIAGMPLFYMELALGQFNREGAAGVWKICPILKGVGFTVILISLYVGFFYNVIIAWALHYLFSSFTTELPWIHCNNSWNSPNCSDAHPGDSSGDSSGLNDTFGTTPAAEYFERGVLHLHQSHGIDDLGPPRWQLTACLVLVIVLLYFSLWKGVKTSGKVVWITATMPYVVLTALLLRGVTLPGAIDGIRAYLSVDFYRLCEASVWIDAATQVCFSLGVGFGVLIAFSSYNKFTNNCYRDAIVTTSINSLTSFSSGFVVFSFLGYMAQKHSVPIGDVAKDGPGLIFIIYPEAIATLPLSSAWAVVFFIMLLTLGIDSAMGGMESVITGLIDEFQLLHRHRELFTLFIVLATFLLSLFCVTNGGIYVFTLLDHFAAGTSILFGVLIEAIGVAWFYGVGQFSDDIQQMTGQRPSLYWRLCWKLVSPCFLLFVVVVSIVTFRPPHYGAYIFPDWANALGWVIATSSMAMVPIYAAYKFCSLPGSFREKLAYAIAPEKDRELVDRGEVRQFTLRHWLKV
# Sigma intracellular receptor 2, sequence (Q5BJF2 whole entry): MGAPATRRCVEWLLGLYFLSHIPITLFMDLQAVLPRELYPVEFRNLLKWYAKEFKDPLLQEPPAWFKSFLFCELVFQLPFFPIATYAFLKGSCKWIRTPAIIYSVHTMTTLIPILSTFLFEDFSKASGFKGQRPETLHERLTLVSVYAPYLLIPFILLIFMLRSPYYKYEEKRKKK
# 5-hydroxytryptamine receptor 7, sequence (P34969 whole entry): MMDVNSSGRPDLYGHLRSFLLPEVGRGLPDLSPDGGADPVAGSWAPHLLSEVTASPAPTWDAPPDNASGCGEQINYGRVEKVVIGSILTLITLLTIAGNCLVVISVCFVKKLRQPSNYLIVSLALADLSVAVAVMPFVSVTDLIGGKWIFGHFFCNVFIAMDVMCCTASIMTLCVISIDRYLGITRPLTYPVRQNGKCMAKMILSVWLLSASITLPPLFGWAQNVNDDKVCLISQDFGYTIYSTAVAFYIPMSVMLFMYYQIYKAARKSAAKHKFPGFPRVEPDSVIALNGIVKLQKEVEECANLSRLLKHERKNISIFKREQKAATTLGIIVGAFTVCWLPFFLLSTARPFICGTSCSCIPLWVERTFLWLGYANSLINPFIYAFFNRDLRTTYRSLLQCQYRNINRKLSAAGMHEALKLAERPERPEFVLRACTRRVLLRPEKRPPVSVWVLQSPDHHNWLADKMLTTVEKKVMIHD
# Sodium-dependent noradrenaline transporter, sequence (P23975 whole entry): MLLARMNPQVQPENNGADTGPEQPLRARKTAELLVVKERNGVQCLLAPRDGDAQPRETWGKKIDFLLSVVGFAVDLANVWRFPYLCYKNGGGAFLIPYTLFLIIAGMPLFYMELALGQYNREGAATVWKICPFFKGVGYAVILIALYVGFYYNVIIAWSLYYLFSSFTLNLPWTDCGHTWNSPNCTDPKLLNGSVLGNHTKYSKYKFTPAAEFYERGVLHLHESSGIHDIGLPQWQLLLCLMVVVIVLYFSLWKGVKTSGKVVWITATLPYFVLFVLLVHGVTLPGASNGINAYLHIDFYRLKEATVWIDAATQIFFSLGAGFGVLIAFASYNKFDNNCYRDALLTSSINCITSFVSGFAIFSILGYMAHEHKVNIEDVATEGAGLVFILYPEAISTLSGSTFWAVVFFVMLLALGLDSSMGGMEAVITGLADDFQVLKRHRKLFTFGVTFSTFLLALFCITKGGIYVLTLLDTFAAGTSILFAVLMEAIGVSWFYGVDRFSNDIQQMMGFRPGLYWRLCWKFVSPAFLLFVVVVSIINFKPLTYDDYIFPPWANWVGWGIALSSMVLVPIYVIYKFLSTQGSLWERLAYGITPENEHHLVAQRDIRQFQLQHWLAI
# 5-hydroxytryptamine receptor 1D, sequence (P28221 whole entry): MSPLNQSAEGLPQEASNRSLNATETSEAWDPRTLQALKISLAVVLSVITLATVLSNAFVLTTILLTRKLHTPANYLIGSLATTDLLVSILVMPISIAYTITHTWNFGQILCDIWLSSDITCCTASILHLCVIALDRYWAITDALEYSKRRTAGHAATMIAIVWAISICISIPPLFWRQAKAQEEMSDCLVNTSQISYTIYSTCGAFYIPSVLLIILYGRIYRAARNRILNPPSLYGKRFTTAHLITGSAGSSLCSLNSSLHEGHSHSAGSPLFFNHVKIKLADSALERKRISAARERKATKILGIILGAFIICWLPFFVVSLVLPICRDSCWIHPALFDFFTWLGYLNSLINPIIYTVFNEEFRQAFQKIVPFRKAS
smiles,measurement,setting,value
O=C(Cc1ccccc1)Nc1nc2ccc(Cl)cc2c2nc(-c3ccco3)nn12,Ki,[1],> 10000 nM
CNC[C@H](O)c1cccc(O)c1 [PHENYLEPHRINE],Ki,[2],1110 nM
COC1CCN(c2cccc(-c3cc(NC(C)=O)nc(-n4nc(C)cc4C)n3)n2)CC1,Ki,[3],474 nM
same,Ki,[4],969 nM
COc1ccc(Br)cc1S(=O)(=O)NC(=O)/C=C/c1ccccc1Cc1ccc2ccccc2c1,Ki,[5],582 nM
CC1(C)SSC(C)(C)[C@@H](NC(=O)[C@@H](N)Cc2ccc(O)cc2)C(=O)NCC(=O)N[C@@H](Cc2ccccc2)C(=O)N[C@H]1C(=O)O,Ki,[4],1630 nM
CCCSc1nc(N[C@@H]2C[C@H]2c2ccc(F)c(F)c2)c2nnn([C@@H]3C[C@H](OCCO)[C@@H](O)[C@H]3O)c2n1 [TICAGRELOR],Ki,[6],1300 nM
same,Ki,[7],519 nM
O=C(O)CC1CCC2(CC1)CCN(c1cc(OC(F)(F)F)ccc1Cl)CC2,Ki,[5],591 nM
NC(=O)[C@@H]1CCCN1C(=O)[C@H](Cc1cnc[nH]1)NC(=O)[C@@H]1CCC(=O)N1 [PROTIRELIN],Ki,[4],> 10000 nM
CC(C)Oc1ccccc1C(=O)Nc1ccccc1C(=O)Nc1cccc(S(=O)(=O)C(F)(F)F)c1,Ki,[4],111 nM
same,Ki,[8],983 nM
COC(=O)[C@H]1[C@H]2C[C@H]3c4[nH]c5ccccc5c4CCN3C[C@H]2CC[C@@H]1O [RAUWOLSCINE HYDROCHLORIDE],Ki,[3],2780 nM
same,Ki,[2],333 nM
O=C1O[C@]2(CC[C@H](C(=O)Nc3ccn(-c4ccccc4F)n3)CC2)c2cnccc21 [MK-0557],Ki,[5],3570 nM
CCCn1c(=O)c2[nH]c(C34CC5CC(CC3C5)C4)nc2n(CCC)c1=O [ROLOFYLLINE],Ki,[7],3360 nM
CCCCN(CC)c1nc(C)nc2c1c(C)cn2-c1c(C)cc(C)cc1C,Ki,[6],2120 nM
same,Ki,[4],1880 nM
COc1ccc(CNC(=O)c2cc(-c3cncc(Cl)c3)cnc2-c2ccccn2)nc1OC [MK-1064],Ki,[8],4590 nM
Cc1cc(C)c(N)c(C#Cc2cccc(F)c2)n1 [RASEGLURANT],Ki,[9],345 nM
N#Cc1c(O)nc(SCc2cccc(F)c2F)nc1C1CC1,Ki,[10],6560 nM
CCCCC#Cc1nc(NC)c2ncn([C@@H]3O[C@H](CO)[C@@H](O)[C@H]3O)c2n1,Ki,[7],> 10000 nM
same,Ki,[8],7870 nM
FC(F)(F)c1c(N2CCC(c3ccccc3)CC2)ccn2c(CC3CC3)nnc12,Ki,[3],983 nM
same,Ki,[7],4310 nM
Cc1c(F)cccc1NC(=O)Nc1ccc(Cl)c(S(=O)(=O)[C@H]2CCCNC2)c1O [DANIRIXIN],Ki,[11],> 10000 nM
Cc1nc(-c2ccc(C(F)(F)F)cc2)sc1COc1ccc([C@H](CC(=O)O)c2ccon2)cc1,Ki,[7],4490 nM
same,Ki,[10],6850 nM
same,Ki,[12],> 10000 nM
COc1ccc(/C=C/CCCCOc2ccc(C(=O)c3cccc(C(=O)O)c3)cc2CCC(=O)O)cc1,Ki,[5],1960 nM
Nc1nc(NCCc2ccc(O)cc2)nc2nc(-c3ccco3)nn12 [ZM-241385],Ki,[6],1070 nM
Cc1csc(NC(=O)c2cc(F)cc(Oc3cncnc3)c2)n1,Ki,[7],2990 nM
same,Ki,[5],2140 nM
same,Ki,[10],> 10000 nM
CCC(=O)NCC[C@@H]1CCc2ccc3c(c21)CCO3 [RAMELTEON],Ki,[3],8850 nM
COc1ccccc1CN[C@H]1C2CCN(CC2)[C@H]1C(c1ccccc1)c1ccccc1 [CP-96345],Ki,[6],906 nM
same,Ki,[10],4940 nM
CN1C(=O)[C@@H](NC(=O)c2cc3ccccc3[nH]2)N=C(c2ccccc2)c2ccccc21 [DEVAZEPIDE],Ki,[4],3330 nM
CCCCCCCCCCCCC/C=C/[C@@H](O)[C@@H](N)COP(=O)(O)O,Ki,[3],5980 nM
same,Ki,[6],672 nM
same,Ki,[4],3120 nM
CC(C)NCC(O)COc1ccc(CCOCC2CC2)cc1 (configuration not stated) [BETAXOLOL HYDROCHLORIDE],Ki,[3],248 nM
same,Ki,[6],1650 nM
CC1=C2C[C@H]3[C@@H](CC=C4C[C@@H](O)CC[C@@]43C)[C@@H]2CC[C@]12O[C@@H]1C[C@H](C)CN[C@H]1[C@H]2C [CYCLOPAMINE],Ki,[6],599 nM
same,Ki,[7],3420 nM
CO[C@@H]1COCC[C@@H]1N[C@@H]1CC[C@@](C(=O)N2CCc3ncc(C(F)(F)F)cc3C2)(C(C)C)C1 [MK-0812],Ki,[3],830 nM
same,Ki,[6],1870 nM
